Reference: US9745631B2, “Methods for diagnosing and treating oncogenic kras-associated cancer” (Dana-Farber Cancer Institute, Inc., priority 2011, dated 2017)

Experiments:
Type in all cases: cell-based, mouse
[1] = tested on: iKras p53L/+ cells; assay: Steady-state metabolite levels by targeted LC-MS/MS in inhibitor-treated cells; conditions: 18 hr
Protocol: FIG. 43 is a bar graph showing the relative steady-state levels of the indicated metabolites measured by targeted LC-MS/MS, in iKras p53L/+ cells treated with AZD8330 (50 nM), BKM120 (150 nM), or Rapamycin (20 nM) for 18 hours. As control, cells were cultured in the presence or absence of doxycycline for 24 hours. Error bars represent SD of the mean. *p<0.05; **p<0.01.
Two independent iKras p53^L/+ tumor lines and one LSL-Kras p53^L/+ line were maintained in basal media in the presence or absence of doxycycline for 24 h. Fresh media was added 2 hours before the experiment. For metabolite collection, media from technical triplicates (in 10 cm dishes at ˜70% confluence) was fully aspirated and 4 mL of 80% (v/v) methanol was added at dry ice temperatures. Cells and the metabolite-containing supernatants were collected into conical tubes. Insoluble material in lysates was centrifuged at 2,000×g for 15 min, and the resulting supernatant was evaporated using a refrigerated speed vac. […] Ten microliters were injected and analyzed using a 5500 QTRAP hybrid triple quadrupole mass spectrometer (AB/SCIEX) coupled to a Prominence UFLC HPLC system (Shimadzu) via selected reaction monitoring (SRM) of a total of 254 endogenous water soluble metabolites for steady-state analyses of samples. […] Approximately 9-12 data points were acquired per detected metabolite. […]

[2] = tested on: iKras p53L/+ cells; assay: QPCR of metabolism genes in inhibitor-treated iKras p53L/+ cells; conditions: AZD8330 50 nM, 18 hr, FIG. 41
Protocol: FIG. 41 is a bar graph showing the relative mRNA expression of the indicated genes in iKras p53L/+ cells treated with MEK inhibitor, AZD8330 (50 nM), BKM120 (150 nM), or Rapamycin (20 nM) for 18 hours. Error bars represent SD of the mean; *p<0.05; **p<0.01.
To further dissect the downstream mechanism of Kras^G12D-mediated metabolic reprogramming, specific pharmacological inhibitors were used to examine the impact of effector pathways on tumor metabolism. iKras p53L/+ cells were treated with AZD8330 (50 nM), BKM120 (150 nM), or Rapamycin (20 nM) for 18 hr. In parallel, cells were cultured in the presence or absence of doxy for 24 hr to serve as controls and relative mRNA levels of indicated metabolism genes were measured by QPCR. Some cell lysates were blotted for phospho-Akt, phospho-Erk, phospho-S6, and Myc. […] To gain further insight into the Kras^G12D-mediated transcriptional regulation that facilitates metabolic reprogramming, promoter analysis was performed on differentially expressed genes upon Kras^G12D inactivation.

[3] = tested on: iKras p53L/+ cells; assay: Western blot for phospho-Akt, phospho-Erk, phospho-S6 and Myc in inhibitor-treated cells; conditions: MEK inhibitor treatment (AZD8330 50 nM, 18 hr)
Protocol: FIG. 42 is a photograph of a Western blot showing expression of phospho-Akt, phospho-Erk, phospho-S6, Myc, and Actin (loading control) in iKras p53L/+ cells treated with AZD8330 (50 nM), BKM120 (150 nM), or Rapamycin (20 nM) for 18 hours. As control, cells were cultured in the presence or absence of doxycycline for 24 hours.
Tissues were fixed in 10% formalin overnight and embedded in paraffin. Immunohistochemical analysis was performed as described (see, Aguirre et al. (2003) Genes Dev 17:3112-3126). The visualization of primary antibodies was performed with horseradish peroxidase system (Vectastain ABC kit, Vector Labs, Inc., Burlingame, Calif.). Images were captured using a Leica DM1400B microsystem and Leica FW4000 version 1.2.1. […]
To further dissect the downstream mechanism of Kras^G12D-mediated metabolic reprogramming, specific pharmacological inhibitors were used to examine the impact of effector pathways on tumor metabolism. iKras p53L/+ cells were treated with AZD8330 (50 nM), BKM120 (150 nM), or Rapamycin (20 nM) for 18 hr. In parallel, cells were cultured in the presence or absence of doxy for 24 hr to serve as controls and relative mRNA levels of indicated metabolism genes were measured by QPCR. […]

[4] = tested on: iKras p53L/+ cells; assay: GSH and GSSG levels normalized to cell number; conditions: 0.5 mM BSO for 24 hours, FIG. 33
Protocol: FIG. 33 is a bar graph quantifying the GSH and GSSG levels normalized to cell number in iKras p53L/+ cells or constitutive LSL-KrasG12D p53L/+ control cells (LSL-Kras) maintained in the presence or absence of doxycycline (Dox+/−) or treated with 0.5 mM BSO for 24 hours; statistical significance is indicated as follows: *: p<0.05.
Doxycycline (Research Product International), BSO (Sigma), Ras activation assay kit (Millipore), G6PD activity assay kit (BioVision), GSH/GSSG-Glo™ assay kit (Promega, Madison, Wis.).
To explore this possibility in the context of Kras^G12D-driven PDAC, ^14C1- or ^14C6-labeled glucose was used to measure the production of CO2 from the oxidative PPP (^14C1—CO2) relative to that generated from the glycolysis-TCA cycle route (^14C6—CO2). Consistent with data showing that Kras^G12D de-induction exerts a minimal effect on TCA cycle intermediates (FIG. 18), no obvious change in the release of ^14C6—CO2 was observed upon doxycycline withdrawal (FIG. 32). More importantly, no significant decrease in the release of ^14C1—CO2 was detected (FIG. 32), indicating Kras^G12D extinction was not associated with decreased flux through the oxidative arm of the PPP.

[5] = tested on: iKras p53L/+ PDAC cells; assay: Clonogenic assay; conditions: shRNA against FASN, FIG. 49
Protocol: FIG. 38 is a bar graph quantifying the clonogenic activity, expressed as colony number, in iKras p53L/+ cells maintained under high (11 mM) or low (1 mM) glucose, determined for cells infected with shRNA against GFP, RPIA, RPE, or RPIA+RPE; statistical significance is indicated as follows: *: p<0.05; **: p<0.01.
FIG. 49 is a bar graph quantifying the colony numbers in a clonogenic assay for iKras p53L/+ PDAC cells infected with shRNA against GFP or FASN.
400 cells were seeded into each well of 6-well plate in duplicate and colonies were stained 7-10 days later with 0.2% crystal violet in 80% methanol.

[6] = tested on: FASN; assay: Relative expression of FASN after shRNA against FASN; conditions: iKras p53L/+ PDAC, FIG. 48
Source text: FIG. 48 is a bar graph quantifying the relative expression level of FASN in iKras p53L/+ PDAC infected with shRNA against GFP or FASN.
(§1) Lentiviral shRNA clones targeting Gfpt1, RPIA, RPE, MYC, and FASN and nontargeting control construct shGFP were obtained from the RNAi Consortium at the Dana-Farber/Broad Institute. The clone IDs and nucleic acid sequences for the shRNAs are:
As shown in Example 4, above, extinction of iKras led to decreased expression of FASN. Thus, it was next determined whether FASN plays a role in tumorigenesis in PDAC tumor model. iKras p53L/+ PDAC were treated with shRNA against FASN or GFP (control). […] Thus, FASN was determined to play a role in tumorigenic activity of iKras p53L/+ PDAC cells.

[7] = tested on: Gfpt1; assay: Western blot for O-GlcNAc after shRNA knockdown of Gfpt1; conditions: shRNA against Gfpt1, FIG. 25
Protocol: FIG. 25 is a photograph of a Western blot analysis for O-GlcNAc and Gfpt1 levels in KrasG12D p53L/+ cells infected with shRNA against GFP or Gfpt1. For control samples, MEFs were cultured in the presence or absence of glucose (Glc+, Glc−) for 24 hours. Actin was used as a loading control.
Tissues were fixed in 10% formalin overnight and embedded in paraffin. Immunohistochemical analysis was performed as described (see, Aguirre et al. (2003) Genes Dev 17:3112-3126). The visualization of primary antibodies was performed with horseradish peroxidase system (Vectastain ABC kit, Vector Labs, Inc., Burlingame, Calif.). Images were captured using a Leica DM1400B microsystem and Leica FW4000 version 1.2.1. The primary antibodies used for immunohistochemistry or Western blot were: SMA (NB600-531, Novus Biologicals®, Littleton, Colo.), BrdU (ab1293, Abcam, Cambridge, Mass.), cleaved-Caspase3 (9664, Cell Signaling, Danvers, Mass.), phosphor-Akt (4060, Cell Signaling), phospho-Erk (4376, Cell Signaling), phospho-S6 (4858, Cell Signaling), Actin (sc-1615, Santa Cruz, Santa Cruz, Calif.), Ras (05-516, Millipore, Billerica, Mass.), O-GlcNAc (ab2739, Abcam). Gfpt1 antibody was a kind gift from Immuno-Biological Laboratories Co., Gunma, Japan.
as §1
Lentiviruses were produced in 293T cells with packing mix (ViraPower Lentiviral Expression System, Invitrogen, Carlsbad, Calif.) as per manufacturer's instruction. 293T cell supernatant containing the shRNA lentivirus was collected, filtered through 0.45 μm filter, and added to target iKras cells in the presence of 8 μg/ml polybrene.
To further substantiate the essentiality of Kras^G12D-mediated control of protein glycosylation, the impact of shRNA-mediated knockdown of Gfpt1 was assessed. […]

## Cc1cc(C(=O)NOCCO)c(Nc2ccc(I)cc2F)n(C)c1=O [AZD8330]
[1]; AZD8330 50 nM, FIG. 43
  metabolite changes in the glycolysis, HBP and nonoxidative PPP pathways: recapitulated the Kras^G12D inactivation induced metabolite changes
[2]
  expression of glycolytic genes (Glut1, Hk1, Eno1, Ldha), HBP gene (Gfpt1) and nonoxidative PPP gene (Rpia), relative mRNA: significantly decreased
[3]
  Myc protein level: decreased

## Nc1cc(C(F)(F)F)c(-c2cc(N3CCOCC3)nc(N3CCOCC3)n2)cn1 [BKM120]
[1]; BKM120 150 nM, FIGS. 41, 42 and 43
  impact on iKras-directed tumor metabolism: did not exhibit a significant impact

## CCCCS(=N)(=O)CCC(N)C(=O)O (stereo not shown) [BSO, buthionine sulfoximine]
[4]
  ratio of GSH/GSSG: dramatically reduced

## FASN shRNA1: lentiviral shRNA clone targeting FASN, GCTGGTCGTTTCTCCATTAAA (SEQ ID NO: 172)
[5]
  colony formation: marked decrease
[6]
  FASN expression: marked decrease

## shRNA4: lentiviral shRNA clone targeting FASN, CGTCTATACCACTGCTTACTA (SEQ ID NO: 175)
[5]
  colony formation: marked decrease
[6]
  FASN expression: marked decrease

## shRNA #1: lentiviral shRNA clone targeting Gfpt1, CCTGAAACTTAAGACAGTTAA (SEQ ID NO: 165)
[7]
  overall O-linked glycosylation (O-GlcNAc): reduced

## shRNA #2: lentiviral shRNA clone targeting Gfpt1, CGTCTCTCTATCCACCGAATT (SEQ ID NO: 166)
[7]
  overall O-linked glycosylation (O-GlcNAc): failed to affect glycosylation

## shRNA #3: lentiviral shRNA clone targeting Gfpt1, CAGGGCATTCTCAGTGTGATT (SEQ ID NO: 167)
[7]
  overall O-linked glycosylation (O-GlcNAc): reduced

## shRNAS: lentiviral shRNA clone targeting FASN, GCTGCGGAAACTTCAGGAAAT (SEQ ID NO: 176)
[5]
  colony formation: to some extent
